Series [1] in a line: in vivo. Conditions: Sprague-Dawley, rat, po, 10 mg/kg.
Series [2] can be described thus: in vivo. The conditions noted are these: Sprague-Dawley, rat, iv, 1 mg/kg.
A short description of series [3]: in vivo. Conditions: Sprague-Dawley, rat, po, 10 mg/kg. The source holds these as a separate data set.
Series [4] in a line: in vivo. Conditions: Sprague-Dawley, rat, iv, 1 mg/kg. The source holds these as a separate data set.

In series [1], `COc1cc2c(Nc3ccc(Oc4ccccc4)cc3)ncnc2cc1OCC1CCN(C)CC1` returned a bioavailability of 9.33%. In addition, the Cmax in series [2] came out at 0.0696 µg/mL; in series [3] it was 0.00743 µg/mL. For the same compound, the half-life in series [4] is 1.97 h.

Broadly, the bioavailability is the share of a dose that reaches the circulation, judged against a reference dose that is usually intravenous. As usually defined, the Cmax is the maximum level reached in the sampled fluid or tissue. In general, half-life refers to the time in which the quantity being followed falls by half. A lower half-life goes with fast loss.

Values taken from ChEMBL document CHEMBL5247618, “Discovery and optimization of 4-anilinoquinazoline derivatives spanning ATP binding site and allosteric site as effective EGFR-C797S inhibitors” (Eur J Med Chem, 2022).
